According to ChEMBL document CHEMBL4483862, “Open-source discovery of chemical leads for next-generation chemoprotective antimalarials” (2018):

Test system: Plasmodium berghei
Test: Luciferase/luciferin-expressing antifolate-resistant parasites were used to infect a culture of HepG2 cells that were pre-incubated with compounds. Infected hepatocytes emit light due to the luciferase reaction. Assay results are presented as the percent inhibition of light emission compared to control. […]
Format: functional
Conditions: sporozoite; for IC90: read-out: LUCIFERASE INFECTION ASSAY - IC90
[1] = read-out: LUCIFERASE INFECTION ASSAY - IC50

Row | Compound | IC90 [µM] | IC50 [1] [µM] | other results
1 | CC(C)(C)c1ccc(OC(=O)Nc2ccc(Cl)c(Cl)c2)c(C(C)(C)C)c1 | > 8.37 |  | IC50 (FFLUC_HILL_SLOPE 3, FFLUC_R_SQUARED 0.639, PBLUC_HILL_SLOPE 0.845, PBLUC_R_SQUARED 0.14, read-out: LUCIFERASE INFECTION ASSAY - IC50): > 8.37 µM
2 | CC(=O)Nc1cccc(C(=O)/C=C/c2cn(-c3ccccc3)nc2-c2ccncc2)c1 | > 10 | > 10 | 
3 | CCOc1ccc(-n2c(SC(C)C(=O)c3ccc(C(C)C)cc3C(C)C)nnc2-c2c[nH]c3ccccc23)cc1 (stereo unspecified) | > 10 |  | IC50 (FFLUC_HILL_SLOPE 12.2, FFLUC_R_SQUARED 0.489, PBLUC_HILL_SLOPE 1.92, PBLUC_R_SQUARED 0.281, read-out: LUCIFERASE INFECTION ASSAY - IC50): 5.8 µM
4 | OC(COc1ccc(Cl)cc1)CN1CCC(Cc2ccccc2)CC1 (stereo unspecified) | 8.19 |  | IC50 (PBLUC_HILL_SLOPE 16.8, 4.66, PBLUC_R_SQUARED 0.391, 0.0786, read-out: LUCIFERASE INFECTION ASSAY - IC50): 6.33 µM
5 | O=C(c1cccs1)N1CCN(C2c3ccccc3-c3ccccc32)CC1 | > 9.15 |  | IC50 (PBLUC_HILL_SLOPE 11.4, PBLUC_R_SQUARED 0.0886, read-out: LUCIFERASE INFECTION ASSAY - IC50): > 9.15 µM
6 | Cc1ccc(-n2c(-c3ccc(F)cc3)nc3c2C(=O)c2ccccc2C3=O)cc1 | > 10 |  | IC50 (PBLUC_HILL_SLOPE 1.1, PBLUC_R_SQUARED 0.595, read-out: LUCIFERASE INFECTION ASSAY - IC50): 1.88 µM
7 | Cn1ncc2c(=O)n(Cc3sc4ccccc4c3Cl)cnc21 | > 10 | > 10 | 
8 | Cn1ccnc1SCC(=O)N1N=C2/C(=C/c3ccccc3)CCCC2C1c1ccccc1 (stereo unspecified) | > 10 |  | IC50 (PBLUC_HILL_SLOPE 2.84, PBLUC_R_SQUARED 0.326, read-out: LUCIFERASE INFECTION ASSAY - IC50): 8.34 µM
9 | CCOc1ccccc1NC(=O)/C=C/c1nnc2c3ccccc3cnn12 | > 10 |  | IC50 (HEPG2TOX_HILL_SLOPE 0.359, HEPG2TOX_R_SQUARED 0.214, PBLUC_HILL_SLOPE 0.79, PBLUC_R_SQUARED 0.499, read-out: LUCIFERASE INFECTION ASSAY - IC50): 1.82 µM
10 | OC1CCC(Nc2nn3c(-c4ccc5ccccc5c4)cnc3s2)CC1 (stereo unspecified) | > 9.05 | > 9.05 | 
11 | COc1ccc(-c2nn(-c3ccccc3)cc2/C=C/C(=O)NCCc2cn3ccccc3n2)cc1OC | > 10 |  | IC50 (PBLUC_HILL_SLOPE 1.11, PBLUC_R_SQUARED 0.206, read-out: LUCIFERASE INFECTION ASSAY - IC50): > 10 µM
12 | COc1ccc(/C(C)=N/OCC(=O)O)cc1 | > 14.8 |  | IC50 (PBLUC_HILL_SLOPE 3.66, PBLUC_R_SQUARED 0.112, read-out: LUCIFERASE INFECTION ASSAY - IC50): > 14.8 µM
13 | Cc1cc(C)n(-c2nc(C)c(Br)c(N(C)C)n2)n1 | > 10.6 | > 10.6 | 
14 | CCc1ccc(NC(=O)c2cc(OC)c(OC)c(OC)c2)cc1[N+](=O)[O-] | > 10 |  | IC50 (HEPG2TOX_HILL_SLOPE 7.15, HEPG2TOX_R_SQUARED 0.493, PBLUC_HILL_SLOPE 1.31, PBLUC_R_SQUARED 0.625, read-out: LUCIFERASE INFECTION ASSAY - IC50): 6.01 µM
15 | COc1nc(-c2ccccc2)cc(-c2ccc3c(c2)OCO3)c1C#N | 5.77 |  | IC50 (HEPG2TOX_HILL_SLOPE 1.05, HEPG2TOX_R_SQUARED 0.733, PBLUC_HILL_SLOPE 1.42, PBLUC_R_SQUARED 0.508, read-out: LUCIFERASE INFECTION ASSAY - IC50): 1.23 µM
16 | Cc1cc2nc3n(c2cc1C)C1(Nc2ccccc2-3)C(=O)Nc2ccccc21 (stereo unspecified) | 3.6 |  | IC50 (PBLUC_HILL_SLOPE 13.5, PBLUC_R_SQUARED 0.192, read-out: LUCIFERASE INFECTION ASSAY - IC50): 3.06 µM
17 | Cc1cc(C(=O)OCC(=O)NC(=O)NC(C)(C)C)c(C)n1-c1ccccc1 | > 10 |  | IC50 (FFLUC_HILL_SLOPE 0.365, FFLUC_R_SQUARED 0.0382, read-out: LUCIFERASE INFECTION ASSAY - IC50): > 10 µM

Row | Compound | IC90 [µM] | IC50 [1] [µM] | other results
18 | CCCCOc1ccc(Nc2nc(C(N)Cc3ccc(OC)cc3)cs2)nn1 (stereo unspecified) | 3.76 |  | IC50 (PBLUC_HILL_SLOPE 10.9, PBLUC_R_SQUARED 0.27, read-out: LUCIFERASE INFECTION ASSAY - IC50): 3.08 µM
19 | CCOc1ccc(-n2c(C)cc(/C=C(\C#N)c3ccccn3)c2C)cc1 | > 10 |  | IC50 (PBLUC_HILL_SLOPE 2.96, PBLUC_R_SQUARED 0.363, read-out: LUCIFERASE INFECTION ASSAY - IC50): 8.53 µM
20 | CCc1ccc(C(NCC(=O)NC(=O)NC)C(C)C)cc1 (stereo unspecified) | > 10 | > 10 | 
21 | Cc1nnc(NC(=O)c2ccc3c(c2)SC2=NS(=O)(=O)CCN23)s1 | > 10 | > 10 | 
22 | OCc1ccc(-c2cnc3ccc(-c4ccccc4)nn23)cc1 | 3.93 |  | IC50 (HEPG2TOX_HILL_SLOPE 2.14, HEPG2TOX_R_SQUARED 0.888, PBLUC_HILL_SLOPE 1.3, PBLUC_R_SQUARED 0.716, read-out: LUCIFERASE INFECTION ASSAY - IC50): 0.73 µM
23 | Cc1cc(C(=O)Cn2c(C(C)O)nc3ccccc32)c(C)n1-c1ccc(F)c(Cl)c1 (stereo unspecified) | > 10 |  | IC50 (PBLUC_HILL_SLOPE 2.79, PBLUC_R_SQUARED 0.449, read-out: LUCIFERASE INFECTION ASSAY - IC50): 7.26 µM
24 | Nc1ncc(-c2ccc(F)c(Cl)c2)cc1-c1ccc(O)cc1 | > 10.5 | > 10.5 | 
25 | CC(C)c1cccc(-c2ccc3nnc(-c4ccc(OCCCN(C)C)cc4)n3c2)c1 | > 10 | > 10 | 
26 | COc1ccc2[nH]cc(C(=O)CN3CCC(Cc4ccccc4)CC3)c2c1 | > 9.1 |  | IC50 (PBLUC_HILL_SLOPE 15.2, PBLUC_R_SQUARED 0.148, read-out: LUCIFERASE INFECTION ASSAY - IC50): 8.48 µM
27 | Cc1cc(C)c(CNC(=O)N(C)Cc2cn(-c3ccccc3)nc2-c2ccccc2)c(=O)[nH]1 | > 10 | > 10 | 
28 | CCCCc1ccc(NC(=O)c2cc(OC)c(OC)c(OC)c2)cc1 | > 9.61 | > 9.61 | 
29 | Cc1ccc(/C=C2\CCc3c2nc2ccccc2c3C(=O)OCC#N)cc1 | 0.0147 |  | IC50 (HEPG2TOX_HILL_SLOPE 0.309, HEPG2TOX_R_SQUARED 0.18, PBLUC_HILL_SLOPE 16.5, PBLUC_R_SQUARED 0.242, read-out: LUCIFERASE INFECTION ASSAY - IC50): 0.0129 µM
30 | O=C(CCc1c(-c2ccc(F)cc2)[nH]c2ccc(F)cc12)NCCN1CCOCC1 | > 10 |  | IC50 (HEPG2TOX_HILL_SLOPE 0.681, HEPG2TOX_R_SQUARED 0.0413, read-out: LUCIFERASE INFECTION ASSAY - IC50): > 10 µM
31 | CC(C)(O)C#Cc1ccc(/C=N/Nc2ccc(I)cc2)cc1 | > 8.16 |  | IC50 (PBLUC_HILL_SLOPE 9.96, PBLUC_R_SQUARED 0.415, read-out: LUCIFERASE INFECTION ASSAY - IC50): 7.16 µM
32 | Cc1cc(/C=C(\C#N)c2nc3ccccc3n2C)c(C)n1-c1ccc(Cl)c(C(F)(F)F)c1 | > 10 | > 10 | 
33 | O=C(CSc1nnc(-c2ccncc2)[nH]1)N1N=C(c2cccs2)CC1c1cccs1 (stereo unspecified) | > 10 |  | IC50 (HEPG2TOX_HILL_SLOPE 0.148, HEPG2TOX_R_SQUARED 0.0376, read-out: LUCIFERASE INFECTION ASSAY - IC50): > 10 µM
